# The star is where a group is joined. Cbz = O=C(OCc1ccccc1)*; CH2F = FC*
# Legend:
# CD33+ myeloid cells = assay: Annexin V staining of sorted cord blood-derived CD33+ myeloid cells removed from MS-5 stroma; assay type: cell-based, human; settings: cultured 18 hours, DMSO control 27.9 ± 3.9, Time 0 <10
# BLIN-1 cells = assay: Apoptosis by Annexin V staining and flow cytometry, BLIN-1; assay type: cell-based, human; settings: BLIN-1, 50 μM, 18 hours
# Description: Flow cytometry. Quantitation of apoptotic events was conducted using a FACS Calibur (BD Immunocytometry Systems). All analyses were conducted on cells with lymphoid light scatter characteristics (i.e., low to medium forward scatter and low 90° side scatter).
# iii. Annexin V. FITC-labeled Annexin V (BD Pharmingen, San Diego, Calif.) was used to detect external phosphatidylserine residues appearing on the external surface of early apoptotic cells (Koopman Blood. 1994;84:1415-1420). Cells were stained according to the manufacturers recommendations.
# General experimental strategy. BLIN cell lines were removed from fibroblast monolayers, washed once and resuspended to 7.5×10^5/ml in X-VIVO 10. Two hundred μL of resuspended cells were added to 96-well flat-bottom microtiter plates (ISC Bioexpress, Kaysville, Vt.), followed by 0.5-1.0 μL of caspase inhibitors in DMSO. An identical volume of DMSO alone was added to separate wells as a vehicle control. This final DMSO concentration of 0.25-0.5% vol/vol had no adverse affect on any of the BLIN cell lines. At the indicated times the entire content of individual wells was harvested and stained in the fluorescent protocols described above.
# The inventors carried out experiments to test the influence of specific amino acid substitutions on the proapoptotic activity Z-LEHD-fmk. […]
# [1] = tested on: CCRF-CEM T lymphoma cell line; assay: Apoptosis by Annexin V staining and flow cytometry, CCRF-CEM; assay type: cell-based; settings: 50 μM, 18 hours
# Description: (§1) FIG. 4 is a pair of graphs showing the effect of […] on various cell lines, as determined by Annexin V staining and flow cytometry. The cells included the B-cell precursor ALL cell lines […], and NALM-6, the RAMOS, RAJI, and DAUDI Burkitt lymphoma cell lines, the CCRF-CEM, JURKAT, and H9 T lymphoma cell lines, the K-562 erythroleukemia cell line, and resting or activated (i.e., CD3/CD28 cross-linked) normal human T cells. […] Flow cytometry. Quantitation of apoptotic events was conducted using a FACS Calibur (BD Immunocytometry Systems). All analyses were conducted on cells with lymphoid light scatter characteristics (i.e., low to medium forward scatter and low 90° side scatter). iii. Annexin V. […] Cells were stained according to the manufacturers recommendations.
# [2] = tested on: JURKAT T lymphoma cell line; assay: Apoptosis by Annexin V staining and flow cytometry, JURKAT; assay type: cell-based; settings: 50 μM, 18 hours
# Description: as §1
# H9 T lymphoma cell line = assay: Apoptosis by Annexin V staining and flow cytometry, H9; assay type: cell-based; settings: H9, 50 μM, 18 hours
# Description: as §1
# [3] = tested on: K-562 erythroleukemia cell line; assay: Apoptosis by Annexin V staining and flow cytometry, K-562; assay type: cell-based; settings: K-562, 50 μM, 18 hours
# Description: as §1
# [4] = tested on: activated (CD3/CD28 cross-linked) normal human T cells; assay: Apoptosis by Annexin V staining and flow cytometry, activated normal T cells; assay type: cell-based; settings: 50 μM, 18 hours
# Description: as §1
# BLIN-3 cells = assay: Loss of mitochondrial transmembrane potential (TMRE) and YO-PRO permeability in BLIN-3; assay type: cell-based, human; settings: BLIN-3, FIG. 2
# Description: Numbers in the histograms indicate the percentage of PI^- cells that underwent a loss of Δψm. Numbers in the contour plots indicate the percentage of Annexin V^+/PI^- cells. […] Numbers in the contour plots indicate the percentage of YO^- PRO^+/PI^- cells. Numbers in the histograms indicate the percentage of PI^- cells that underwent a loss of Δψm. Flow cytometry. Quantitation of apoptotic events was conducted using a FACS Calibur (BD Immunocytometry Systems). All analyses were conducted on cells with lymphoid light scatter characteristics (i.e., low to medium forward scatter and low 90° side scatter). i. Mitochondrial transmembrane potential (Δψm). The cationic lipophilic fluorescent dye tetramethylrhodamine, ethyl ester, perchlorate (TMRE) was purchased from Molecular Probes, Inc. (Eugene, Oreg.). TMRE has a high degree of membrane permeability and accumulates into mitochondria in accord with the Nernstian equation (Farkas Biophys J. 1989;56:1053-1069). Cells were washed once and re-suspended to 0.5-1.0×10^6/ml in X-VIVO 10. TMRE was added to a final concentration of 50 nM and the cells were incubated in the dark at 37° C. for 15 minutes. […] ii. YO-[…]. The green fluorescent DNA intercalant dye YO-PRO-1 (Idziorek J Immunol Methods. 1995;185:249-258) was purchased from Molecular Probes as the Vybrant Apoptosis Assay Kit #4. […]
# JURKAT T lymphoma cells = assay: Fas response of JURKAT T lymphoma cells; assay type: cell-based; settings: 50 μM
# leukemic cell lines = assay: Staurosporine response of panel of leukemic cell lines, Annexin V; assay type: cell-based; settings: staurosporine plus 50 μM C9i; leukemic cells that responded to C9i alone
# Description: as §1, with “recommendations. The inventors expanded their analysis of […] to other leukemic cell lines. […] The JURKAT T lymphoma cell line was also sensitive. In contrast, the RAJI and DAUDI Burkitt lymphoma cell lines, the H9 T lymphoma cell line, and the K-562 erythroleukemia cell line were insensitive to […]. […] The inventors also tested whether […] would potentiate the apoptotic effect of the widely used serine/threonine kinase inhibitor staurosporine. […] Thus, the leukemic cell lines were generally responsive to both […] and staurosporine, or responsive to neither.” for “recommendations.”
substance,measurement,setting,value
Z-LEHD-fmk (Cbz-LEHD-CH2F; SMILES CC(C)C[C@H](NC(=O)OCc1ccccc1)C(=O)N[C@@H](CCC(=O)O)C(=O)N[C@@H](Cc1c[nH]cn1)C(=O)N[C@@H](CC(=O)O)C(=O)CF) [C9i],"percentage of total Annexin V+ cells (PI+ and PI−), mean ± SD",CD33+ myeloid cells,22.3 ± 1.2%
same,sensitivity (fold-increase in Annexin V+ cells vs DMSO),BLIN-1 cells,sensitive
same,sensitivity (fold-increase in Annexin V+ cells vs DMSO),[1],extremely sensitive
same,sensitivity (fold-increase in Annexin V+ cells vs DMSO),[2],sensitive
same,sensitivity (fold-increase in Annexin V+ cells vs DMSO),H9 T lymphoma cell line,insensitive
same,sensitivity (fold-increase in Annexin V+ cells vs DMSO),[3],insensitive
same,sensitivity (fold-increase in Annexin V+ cells vs DMSO),[4],marginally sensitive
same,"enhancement of apoptosis (YO-PRO+/PI− cells, reduced TMRE staining) versus concentration",BLIN-3 cells,dose-dependent
same,Fas response of JURKAT T lymphoma cells,JURKAT T lymphoma cells,blocked the Fas response
same,potentiation of the apoptotic effect of staurosporine,leukemic cell lines,enhanced the staurosporine response
